Reference: ChEMBL document CHEMBL1949582, “Suppression of nitric oxide production on LPS/IFN-γ-stimulated RAW264.7 macrophages by a novel catechin, pilosanol N, from Agrimonia pilosa Ledeb” (Bioorg Med Chem Lett, 2012)
Activity calls are given as the source filed them. No cut-off for these calls is given here.

How the values were obtained:
[1] = test system: RAW264.7; assay: Antiinflammatory activity in mouse RAW264.7 cells assessed as inhibition of LPS/IFN-gamma-induced NO production at 25 to 100 uM after 20 hrs by Griess method; assay type: functional, cell-based
[2] = test system: RAW264.7; assay: Cytotoxicity against mouse RAW264.7 cells assessed as cell viability at 25 to 100 uM by MTT assay; assay type: cell-based; conditions: raw264.7, 100 µM
[3] = test system: RAW264.7; assay: Antiinflammatory activity in mouse RAW264.7 cells assessed as inhibition of LPS/IFN-gamma-induced NO production after 20 hrs by Griess method; assay type: functional, cell-based
[4] = test system: RAW264.7; assay: Protection against LPS/IFN-gamma-induced cell damage in mouse RAW264.7 cells by MTT assay; assay type: functional, cell-based
[5] = test system: RAW264.7; assay: Antiinflammatory activity in mouse RAW264.7 cells assessed as inhibition of LPS/IFN-gamma-induced iNOS protein production at 100 uM by RT-PCR analysis; assay type: functional, cell-based
[6] = Antioxidant activity in PBS buffer assessed as nitric oxide scavenging activity by measuring inhibition of nitrite production from NOR3 after 60 mins; assay type: functional
[7] = test system: RAW264.7; assay: Antiinflammatory activity in mouse RAW264.7 cells assessed as inhibition of LPS/IFN-gamma-induced iNOS gene expression at 25 uM by RT-PCR analysis; assay type: functional

Row | Compound | inhibition [1] | Activity [2] | inhibition [3] | Activity [4] | inhibition [5] | inhibition [6] | inhibition at 25 µM [7]
1 | C[C@@H]1O[C@@H](Oc2c(-c3ccc(O)c(O)c3)oc3cc(O)cc(O)c3c2=O)[C@H](O)[C@H](O)[C@H]1O | Active |  |  |  |  |  | 
2 | COc1c(C)c(O)c(Cc2c(O)cc(O)c3c2O[C@H](c2ccc(O)c(O)c2)[C@@H](O)C3)c(O)c1C(C)=O [PILOSANOL N] |  | Non-toxic | Dose-dependent effect | Dose-dependent effect | Active | Dose-dependent effect | 60%
